Key:
SUDHL-4 cell line = test: Dose response of combinations (MTS viability, day 3); type: cell-based; details: SUDHL-4, combined with 0.5 μM 9-ING-41, day 3 MTS
Protocol: (§1) FIGS. 2A-2O show the viability of lymphoma cells with chemotherapy agents in combination with 9-ING-41. 10,000 cells (FIGS. 1A, F, K: Daudi; FIGS. 1B, G, L: SUDHL-4; FIGS. 1C, H, M: KPUM-UH1; FIGS. 1D, I, N: Karpas 422; E, J, O: TMD8) were plated per well of a 96-well plate and treated with a dose response series of both 9-ING-41 (0-0.5 μM) and Venetoclax (0-5,000 nM) (FIGS. 1A-E) or BAY-1143572 (0-50 μM) (FIGS. 1F-J) or Idelalisib (0-50 μM) (FIGS. 1K-O) in triplicate. Viability after 3 days was analyzed using the MTS assay. Briefly, 20 μl of MTS reagent was added to cells and incubated for 2 hours and, the absorbance at 490 nm was read using a Biotek plate reader. Relative absorbance is calculated after setting the average absorbance of the no-treatment control as 1. Absorbance at OD=490 nm increases proportionally to cell density.
(§2) Daudi, SUDHL-4, KPUM-UH1, Karpas 422, or TMD8 cells were treated simultaneously with a series of concentrations of 9-ING-41 (0 μM, 0.05 μM, 0.5 μM) and either Venetoclax (0 nM, 0.5 nM, 5 nM, 50 nM, 500 nM, 5000 nM), BAY-1143572 (0 μM, 0.005 μM, 0.05 μM, 0.5 μM, 5 μM, 50 μM), or Idelalisib (0 μM, 0.005 μM, 0.05 μM, 0.5 μM, 5 μM, 50 μM). Viability at day 3 using an MTS assay was determined as described above. The background absorbance was subtracted from the A490 of the samples and the A490 of the vehicle/no-treatment control was set to 1, and the relative A490s of the rest of the samples were calculated. The IC50 was calculated as the concentration of the drug at which A490 reached 0.5. Additive effects were calculated as a fold change in the IC50 of a novel agent when combined with 0.5 μM of 9-ING-41.

KPUMUH1 cell line = test: as above; type: cell-based; details: KPUMUH1, combined with 0.5 μM 9-ING-41, day 3 MTS
Protocol: as §1, §2

Row | SMILES | Reduction in the IC50 value on combination with 9-ING-41 (SUDHL-4 cell line) | Reduction in the IC50 value on combination with 9-ING-41 (KPUMUH1 cell line)
1 | COc1cc(F)ccc1-c1ncnc(Nc2cccc(C[S@](C)(=N)=O)c2)n1 [BAY-1143572] | 8 fold | 
2 | CC1(C)CCC(CN2CCN(c3ccc(C(=O)NS(=O)(=O)c4ccc(NCC5CCOCC5)c([N+](=O)[O-])c4)c(Oc4cnc5[nH]ccc5c4)c3)CC2)=C(c2ccc(Cl)cc2)C1 [Venetoclax] | 8 fold | 2 fold

Source: patent publication US11980607B2, “Methods of treating malignant lymphoproliferative disorders” (Actuate Therapeutics Inc., priority 2018, dated 2024)
